Measurements published in article PMC11087268, “A folate inhibitor exploits metabolic differences in Pseudomonas aeruginosa for narrow-spectrum targeting” (Nature Microbiology, 2024).
Where “and” joins values, the source holds several entries; their conditions need not be identical. Identical values can stand only once. Like-named read-outs stand apart in the source and are kept apart here.

Assays:
sheep red blood cells = assay: Haemolysis; type: cell-based; conditions: 1 h, vs Triton X-100 100% lysis
Experimental: (§1) Samples were treated at 37 °C with shaking for 1 h and then centrifuged. Supernatants were collected and absorbances were measured at 405 nm in a Tecan InfiniteM200 Pro microplate reader.

P. aeruginosa = assay: MIC of known DHFR inhibitors against P. aeruginosa; type: cell-based, Pseudomonas aeruginosa; conditions: strain not named
P. aeruginosa PA14 [1] = assay: Colony-forming units counting after antibiotic treatment; type: cell-based, Pseudomonas aeruginosa; conditions: 2× MIC (fluorofolin 6.2, TMP 250, polymixin B 4 μg ml^−1)
Experimental: P. aeruginosa PA14 overnight cultures were diluted 1:100 and grown to exponential phase (OD600 = 0.4–0.6). Cultures were diluted 1:10 and treated with antibiotic. At each time point, 150 μl of culture was removed, serial diluted 1:10 six times and plated onto LB agar plates. Plates were grown overnight at 37 °C, after which visible colonies were counted. C.f.u.s ml^−1 are reported from dilutions in which ~10–100 single colonies were visible.

[2] = test system: P. aeruginosa PA14 oprM transposon mutant; assay: microbe, parasite or virus in culture; type: cell-based; conditions: Pseudomonas aeruginosa
Experimental: (§2) Overnight cultures were diluted 1:150 in LB broth and added to a 96-well plate. Antibiotics were serially diluted 1:2 and added to columns of the 96-well plate and grown at 37 °C with continuous shaking. Cell growth was measured using optical density at 600 nm (OD600). MIC assays were performed in either BioTek Synergy HT or Tecan InfiniteM200 Pro microplate readers.
(§3) P. aeruginosa PA14 transposon mutants were generated by the Ausubel Lab (https://pa14.mgh.harvard.edu/cgi-bin/pa14/home.cgi)[67]. The MICs of fluorofolin and TMP against strains with disrupted MexA, MexB and OprM were determined as above and compared to the parental strain. As transposon mutants in MexB were represented twice in this collection, the MIC was confirmed across both mutant strains.

[3] = test system: P. aeruginosa PA14 mexB transposon mutant; assay: microbe, parasite or virus in culture; type: cell-based; conditions: Pseudomonas aeruginosa
Experimental: as §2, §3

[4] = test system: P. aeruginosa PA14 mexA transposon mutant; assay: microbe, parasite or virus in culture; type: cell-based; conditions: Pseudomonas aeruginosa
Experimental: as §2, §3

[5] = test system: Pseudomonas aeruginosa PA14; assay: MIC against P. aeruginosa PA14 in LB broth; type: cell-based
Experimental: as §2

[6] = test system: P. aeruginosa PA14 folate metabolism (dUMP, AICAR, GAR); assay: Metabolomics (LC–MS) of treated PA14; type: cell-based, Pseudomonas aeruginosa; conditions: PA14, 15 min
Experimental: Metabolites were extracted by vacuum filtering 15 ml of treated cells using 0.45 μm HNWP Millipore nylon membranes and placing the filters into an ice-cold quenching solution of 40:40:20 methanol:acetonitrile:H2O. Extracts were kept on dry ice for 1 h and centrifuged at 16,000 g for 1 h at 4 °C. The supernatant was kept at -80 °C until mass spectrometry analysis. Liquid chromatography-mass spectrometry (LC-MS) analysis of metabolites was performed on an Orbitrap Exploris 240 mass spectrometer coupled with hydrophilic interaction liquid chromatography (HILIC)[68]. […] Waters 196006724), with a gradient of solvent A (95 vol. % H2O, 5 vol. % acetonitrile, with 20 mM ammonium acetate and 20 mM ammonium hydroxide, pH 9.4) and solvent B (acetonitrile). Flow rate was 0.15 ml min^-1 and column temperature was set at 25 °C. […] Raw mass spectrometry data were converted to mzXML format by MSConvert (ProteoWizard). Pick-peaking was done on […].0.8.0, Elucidata).

Haemolysis = type: cell-based, sheep; conditions: sheep, defibrinated sheep red blood cells, 1 h, vs Triton X-100 100% lysis
Experimental: as §1

P. aeruginosa PA14 [7] = type: cell-based, Pseudomonas aeruginosa; conditions: PA14, 0.25 h
Experimental: Overnight P. aeruginosa PA14 or E. coli lptD4213 cultures were diluted 1:100 and grown to mid exponential phase at 37 °C. Cultures were diluted 1:10 into PBS and treated with antibiotics for 15 min. P. aeruginosa PA14 was stained with TO-PRO-3 (640 nm excitation, 670/30 nm emission) to measure cell membrane integrity. E. coli lptD4213 was stained with both TO-PRO-3 and DiOC2(3) (ThermoFisher B34950) to measure cell membrane integrity and membrane potential. DiOC2(3) was evaluated as a ratio of green (488 nm excitation, 525/50 nm emission) to red (488 nm excitation, 610/20 nm emission)[66]. The LSRII flow cytometer (BD Biosciences) at the Flow Cytometry Resource Facility, Princeton University, was used to measure the fluorescent intensities of both dyes in response to antibiotic treatment. 100,000 events were recorded for each data file. Gates for permeabilization were determined using polymixin B (Sigma-Aldrich P1004) and untreated controls. Gates for depolarization were determined using carbonyl cyanide m-chlorophenyl hydrazone (CCCP) as a positive control. Data were analysed using FlowJo v.10 software.

[8] = test system: PA14 nfxB (T39P) and mexS (L46F) mutants; assay: Pyocyanin production; type: cell-based, Pseudomonas aeruginosa; conditions: for Pyocyanin production (Panel E): single replicates
Experimental: […] Cell-free supernatants were […] by centrifugation, and 100 μl were added to a 96-well plate in duplicate. The integrated absorbance spectrum from 306 to 326 nm was taken in a Tecan InfiniteM200 Pro plate reader to determine pyocyanin levels in each sample. A ΔpqsA sample was used to subtract out any background values, and pyocyanin levels were normalized by the ratio of OD600 between wildtype PA14 and the mutants to account for any slight differences in growth.

PA14 = assay: Checkerboard assay fluorofolin / sulfamethoxazole; type: cell-based, Pseudomonas aeruginosa; conditions: PA14, Fluorofolin 0 ug/mL
Experimental: Cells were seeded in a similar manner as described above for MIC calculations. […] Fractional inhibitory concentrations (FICs) were calculated as [[…], where [fluorofolin] and [SMX] are the concentrations of compounds in a given well, which were divided by the concentration of drug at the MIC for each compound.

P. aeruginosa PA14 [9] = assay: In vivo PA14 murine thigh infection; conditions: neutropenic CD-1 mice, 24 h post infection; fluorofolin 25 mg kg^−1 subcutaneous and/or SMX 100 mg kg^−1 intraperitoneal at 1 and 12 h; one value per mouse
From the text: For P. aeruginosa thigh infection model and maximum tolerated dose (MTD) studies, care and handling of female 5–6-week-old CD-1 conformed to Institutional Animal Care and Use Committee (IACUC) policies as carried out at the University of North Texas Health Science Center (Fort Worth, Texas) under UNTHSC IACUC-approved protocol nos. IACUC-2021-0003 and IACUC-2020-0039. Rodents were fed either base chow (Envigo) or base diet supplemented with 1.8 g kg^−1 thymidine (Sigma T9250) starting at 2 days before infection. All procedures were conducted in accordance with the UNTHSC IACUC-approved protocol. Animals were housed in rooms undergoing 10–15 air changes per hour. Air provided to the animal rooms was controlled for temperature and humidity and is fully monitored 24 h a day. Air pressure was balanced according to room use. Lighting was controlled in individual rooms by automatic timers with a standard 12 h on, 12 h off cycle.
Female 5–6-week-old CD-1 mice were rendered neutropenic by intraperitoneal cyclophosphamide treatment (Cytoxan) before this study. On day 0, mice were infected intramuscularly with 5.33 log c.f.u. per thigh PA14. Mice were treated subcutaneously with fluorofolin at 1 and 12 h post infection. For co-treatment, mice were treated with SMX intraperitoneally at 1 and 12 h post infection. […] In vivo efficacy was evaluated by the UNTHSC.

[10] = 2× MIC (fluorofolin 6.3, TMP 250 μg ml^−1), one value per replicate

Compound: Nc1nc(N)c2c(ccc3c2ccn3Cc2ccc(-c3ccccc3)cc2)n1 [IRS-16]
- % Hemolysis, Mean (sheep red blood cells; 0.78125 ug/mL): 6.068%
- % Hemolysis, Mean (sheep red blood cells; 1.5625 ug/mL): 12.9642%
- % Hemolysis, Mean (sheep red blood cells; 3.125 ug/mL): 26.947%
- % Hemolysis, Mean (sheep red blood cells; 6.25 ug/mL): 25.0196%
- % Hemolysis, Mean (sheep red blood cells; 12.5 ug/mL): 26.9567%
- % Hemolysis, Mean (sheep red blood cells; 25 ug/mL): 30.487%
- % Hemolysis, Mean (sheep red blood cells; 50 ug/mL): 39.1325%
- MIC (P. aeruginosa): > 50 µg/mL

Compound: polymixin B
- PA14 CFU/mL, Mean (P. aeruginosa PA14 [1]; Time 0 h): 197000 CFU/mL
- PA14 CFU/mL, Mean (P. aeruginosa PA14 [1]; Time 1 h): 81.6667 CFU/mL
- PA14 CFU/mL, Mean (P. aeruginosa PA14 [1]; Time 2 h): 17.7778 CFU/mL
- PA14 CFU/mL, Mean (P. aeruginosa PA14 [1]; Time 4 h): 20 CFU/mL

Compound: COc1cc(Cc2cnc(N)nc2N)cc(OC)c1OC [Trimethoprim, trimethoprim, reference compound]
- MIC [2]: 25 µg/mL
- MIC [3]: 25 µg/mL
- MIC [4]: 50 µg/mL
- MIC ([5]; P. aeruginosa PA14): 125 µg/mL
- MIC ([5]; Pseudomonas aeruginosa, Wildtype PA14, control for each drug stock, read-out: MIC): 125 µg/mL
- change of AICAR and dUMP ([6]; 2× MIC): significant upregulation
- Normalized Ion Counts AICAR [6, 10]: 1099947 and 1907694 and 151411
- Normalized Ion Counts GAR [6, 10]: 163607 and 121038 and 24881.8
- Normalized Ion Counts dUMP [6, 10]: 2000000 and 3000000
- hemolysis at 1 h, 0.78125 ug/mL (Haemolysis; 0.78125 ug/mL): 0.423%
- hemolysis at 1 h, 1.5625 ug/mL (Haemolysis; 1.5625 ug/mL): 0.123%
- hemolysis at 1 h, 3.125 ug/mL (Haemolysis; 3.125 ug/mL): 0.0766%
- hemolysis at 1 h, 6.25 ug/mL (Haemolysis; 6.25 ug/mL): 1.27%
- hemolysis at 1 h, 12.5 ug/mL (Haemolysis; 12.5 ug/mL): 0.258%
- hemolysis at 1 h, 25 ug/mL (Haemolysis; 25 ug/mL): 0.606%
- hemolysis at 1 h, 50 ug/mL (Haemolysis; 50 ug/mL): 4.08%
- PA14 CFU/mL, Mean (P. aeruginosa PA14 [1]; Time 0 h): 197000 CFU/mL
- PA14 CFU/mL, Mean (P. aeruginosa PA14 [1]; Time 1 h): 178000 CFU/mL
- PA14 CFU/mL, Mean (P. aeruginosa PA14 [1]; Time 2 h): 187000 CFU/mL
- PA14 CFU/mL, Mean (P. aeruginosa PA14 [1]; Time 4 h): 338889 CFU/mL
- Permeabilized (TO-PRO-3 gate) (P. aeruginosa PA14 [7]): 0.42

Compound: CCCCCCCc1[nH]c2ccccc2c(=O)c1O [PQS, Pseudomonas quinolone signal]
- Pyocyanin production (Panel E) ([8]; PA14, + 1 uM PQS): 15.8282 and 16.194 and 15.1165
- pyocyanin production of nfxB and mexS mutants ([8]; PQS 1 μM added at inoculation): partially rescued
- Pyocyanin production (Panel E) ([8]; PqsA KO, + 1 uM PQS): 17.5069 and 16.392 and 16.1857
- Pyocyanin production (Panel E) ([8]; mexS Mutant, + 1 uM PQS): 10.0838 and 9.877 and 13.1798
- Pyocyanin production (Panel E) ([8]; nfxB mutant, + 1 uM PQS): 8.219 and 6.016 and 7.118

Compound: Cc1cc(NS(=O)(=O)c2ccc(N)cc2)no1 [SMX, Sulfamethoxazole, reference compound]
- FIC index (PA14; SMX 625.00 ug/mL): 1
- FIC index (PA14; SMX 1250.00 ug/mL): 2
- PA14 load in thigh (P. aeruginosa PA14 [9]): 8.8 log 10(CFU/ mouse) and 8.33 log 10(CFU/ mouse) and 8.57 log 10(CFU/ mouse) and 7.94 log 10(CFU/ mouse)
